Activity calls are given as the source filed them. No cut-off for these calls is given here.
What was measured:
[1] = test system: Bacillus subtilis; test: Bactericidal against Bacillus subtilis ATCC 6633; type: functional, organism-based
[2] = test system: Pseudomonas aeruginosa; test: Antibacterial activity against Pseudomonas aeruginosa ATCC 27853 at 50 ug/ml after 24 hr by paper disk diffusion method; type: functional; details: ATCC 27853, 24 h, read-out: DIZ
[3] = test system: Fusarium oxysporum; test: Fungicidal activity against Fusarium oxysporum MTCC 2087; type: functional, organism-based
[4] = test system: Fusarium oxysporum; test: Antifungal activity against Fusarium oxysporum MTCC 2087 at 70 ug/ml by paper disk diffusion method; type: functional; details: read-out: DIZ
[5] = test system: Escherichia coli; test: Antibacterial activity against Escherichia coli ATCC 8793 at 50 ug/ml after 24 hr by paper disk diffusion method; type: functional; details: ATCC 8793, 24 h, read-out: DIZ
[6] = test system: Escherichia coli; test: Antibacterial activity against Escherichia coli ATCC 8793 at 70 ug/ml after 24 hr by paper disk diffusion method; type: functional; details: ATCC 8793, 24 h, read-out: DIZ
[7] = test system: Staphylococcus aureus; test: Bactericidal activity against Staphylococcus aureus ATCC 25923; type: functional, organism-based
[8] = test system: Escherichia coli; test: Antibacterial activity against Escherichia coli ATCC 8793 at 30 ug/ml after 24 hr by paper disk diffusion method; type: functional; details: ATCC 8793, 24 h, read-out: DIZ
[9] = test system: Candida albicans; test: Antifungal activity against Candida albicans MTCC 227 at 70 ug/ml by paper disk diffusion method; type: functional; details: read-out: DIZ
[10] = test system: Bacillus subtilis; test: Antibacterial activity against Bacillus subtilis ATCC 6633 at 30 ug/ml after 24 hr by paper disk diffusion method; type: functional; details: ATCC 6633, 24 h, read-out: DIZ
[11] = test system: Staphylococcus aureus; test: Antibacterial activity against Staphylococcus aureus ATCC 25923 at 70 ug/ml after 24 hr by paper disk diffusion method; type: functional; details: ATCC 25923, 24 h, read-out: DIZ
[12] = test system: Fusarium oxysporum; test: Antifungal activity against Fusarium oxysporum MTCC 2087 at 30 ug/ml by paper disk diffusion method; type: functional; details: read-out: DIZ
[13] = test system: Candida albicans; test: Fungicidal activity against Candida albicans MTCC 227; type: functional, organism-based
[14] = test system: Candida albicans; test: Antifungal activity against Candida albicans MTCC 227 at 50 ug/ml by paper disk diffusion method; type: functional; details: read-out: DIZ
[15] = test system: Pseudomonas aeruginosa; test: Bactericidal activity against Pseudomonas aeruginosa ATCC 27853; type: functional, organism-based
[16] = test system: Staphylococcus aureus; test: Antibacterial activity against Staphylococcus aureus ATCC 25923 at 50 ug/ml after 24 hr by paper disk diffusion method; type: functional; details: ATCC 25923, 24 h, read-out: DIZ
[17] = test system: Staphylococcus aureus; test: Antibacterial activity against Staphylococcus aureus ATCC 25923 at 30 ug/ml after 24 hr by paper disk diffusion method; type: functional; details: ATCC 25923, 24 h, read-out: DIZ
[18] = test system: Escherichia coli; test: Bactericidal activity against Escherichia coli ATCC 8793; type: functional, organism-based
[19] = test system: Pseudomonas aeruginosa; test: Antibacterial activity against Pseudomonas aeruginosa ATCC 27853 at 70 ug/ml after 24 hr by paper disk diffusion method; type: functional; details: ATCC 27853, 24 h, read-out: DIZ
[20] = test system: Aspergillus niger; test: Fungicidal activity against Aspergillus niger MTCC 3323; type: functional, organism-based
[21] = test system: Fusarium oxysporum; test: Antifungal activity against Fusarium oxysporum MTCC 2087 at 50 ug/ml by paper disk diffusion method; type: functional; details: read-out: DIZ
[22] = test system: Candida albicans; test: Antifungal activity against Candida albicans MTCC 227 at 30 ug/ml by paper disk diffusion method; type: functional; details: read-out: DIZ
[23] = test system: Pseudomonas aeruginosa; test: Antibacterial activity against Pseudomonas aeruginosa ATCC 27853 at 30 ug/ml after 24 hr by paper disk diffusion method; type: functional; details: ATCC 27853, 24 h, read-out: DIZ
[24] = test system: Bacillus subtilis; test: Antibacterial activity against Bacillus subtilis ATCC 6633 at 70 ug/ml after 24 hr by paper disk diffusion method; type: functional; details: ATCC 6633, 24 h, read-out: DIZ
[25] = test system: Aspergillus niger; test: Antifungal activity against Aspergillus niger MTCC 3323 at 30 ug/ml by paper disk diffusion method; type: functional; details: read-out: DIZ
[26] = test system: Aspergillus niger; test: Antifungal activity against Aspergillus niger MTCC 3323 at 50 ug/ml by paper disk diffusion method; type: functional; details: read-out: DIZ
[27] = test system: Aspergillus niger; test: Antifungal activity against Aspergillus niger MTCC 3323 at 70 ug/ml by paper disk diffusion method; type: functional; details: read-out: DIZ
[28] = test system: Bacillus subtilis; test: Antibacterial activity against Bacillus subtilis ATCC 6633 at 50 ug/ml after 24 hr by paper disk diffusion method; type: functional; details: ATCC 6633, 24 h, read-out: DIZ

With `CCN(CC)CC(=O)Nn1c(S)nnc1-c1ccc(OC)cc1` the Activity [1] was “Active”, the zone of inhibition at 50 µg/mL [2] was 9.56 mm and the Activity [3] was “inactive”. The zone of inhibition at 70 µg/mL [4] was 9.06 mm, the zone of inhibition at 50 µg/mL [5] was 10.1 mm and the zone of inhibition at 70 µg/mL [6] was 11.2 mm. The Activity [7] was “Active”, the zone of inhibition at 30 µg/mL [8] was 9.2 mm and the zone of inhibition at 70 µg/mL [9] was 10.4 mm. For the same molecule, the zone of inhibition at 30 µg/mL [10] was 7.23 mm, the zone of inhibition at 70 µg/mL [11] was 9.36 mm and the zone of inhibition at 30 µg/mL [12] was 7.26 mm. For the same molecule, the Activity [13] was “inactive”, the zone of inhibition at 50 µg/mL [14] was 9.13 mm and the Activity [15] was “Active”. The zone of inhibition at 50 µg/mL [16] was 8.33 mm, the zone of inhibition at 30 µg/mL [17] was 7.63 mm and the Activity [18] was “Active”. The zone of inhibition at 70 µg/mL [19] was 10.8 mm, the Activity [20] was “inactive” and the zone of inhibition at 50 µg/mL [21] was 8.21 mm. The zone of inhibition at 30 µg/mL [22] was 8.1 mm, the zone of inhibition at 30 µg/mL [23] was 8.26 mm and the zone of inhibition at 70 µg/mL [24] was 9.03 mm. It also gave a zone of inhibition at 30 µg/mL [25] of 9.13 mm, a zone of inhibition at 50 µg/mL [26] of 10.2 mm and a zone of inhibition at 70 µg/mL [27] of 11.1 mm. It also gave a zone of inhibition at 50 µg/mL [28] of 8.53 mm.
With `CCCN(CCC)CC(=O)Nn1c(S)nnc1-c1ccc(OC)cc1` the Activity [1] was “Active”, the zone of inhibition at 50 µg/mL [2] was 13.2 mm and the Activity [3] was “Active”. The zone of inhibition at 70 µg/mL [4] was 12.2 mm, the zone of inhibition at 50 µg/mL [5] was 12.2 mm and the zone of inhibition at 70 µg/mL [6] was 14.2 mm. For the same molecule, the Activity [7] was “Active”, the zone of inhibition at 30 µg/mL [8] was 11.1 mm and the zone of inhibition at 70 µg/mL [9] was 15.1 mm. It also gave a zone of inhibition at 30 µg/mL [10] of 10.2 mm, a zone of inhibition at 70 µg/mL [11] of 14.8 mm and a zone of inhibition at 30 µg/mL [12] of 10.2 mm. The Activity [13] was “Active”, the zone of inhibition at 50 µg/mL [14] was 13.2 mm and the Activity [15] was “Active”. For the same molecule, the zone of inhibition at 50 µg/mL [16] was 13.2 mm, the zone of inhibition at 30 µg/mL [17] was 12.7 mm and the Activity [18] was “Active”. For the same molecule, the zone of inhibition at 70 µg/mL [19] was 14.1 mm, the Activity [20] was “Active” and the zone of inhibition at 50 µg/mL [21] was 11.1 mm. For the same molecule, the zone of inhibition at 30 µg/mL [22] was 12.5 mm, the zone of inhibition at 30 µg/mL [23] was 12.2 mm and the zone of inhibition at 70 µg/mL [24] was 12.8 mm. For the same molecule, the zone of inhibition at 30 µg/mL [25] was 14 mm, the zone of inhibition at 50 µg/mL [26] was 15.2 mm and the zone of inhibition at 70 µg/mL [27] was 17 mm. It also gave a zone of inhibition at 50 µg/mL [28] of 11 mm.
For `CCCCCN(CCCCC)CC(=O)Nn1c(S)nnc1-c1ccc(C)cc1`, the Activity [1] was “Active”, the zone of inhibition at 50 µg/mL [2] was 8.13 mm and the Activity [3] was “inactive”. The zone of inhibition at 70 µg/mL [4] was 9.13 mm, the zone of inhibition at 50 µg/mL [5] was 7.16 mm and the zone of inhibition at 70 µg/mL [6] was 8.13 mm. For the same molecule, the Activity [7] was “Active”, the zone of inhibition at 30 µg/mL [8] was 6.26 mm and the zone of inhibition at 70 µg/mL [9] was 9.23 mm. The zone of inhibition at 30 µg/mL [10] was 6.46 mm, the zone of inhibition at 70 µg/mL [11] was 8.16 mm and the zone of inhibition at 30 µg/mL [12] was 7.07 mm. The Activity [13] was “inactive”, the zone of inhibition at 50 µg/mL [14] was 8.1 mm and the Activity [15] was “Active”. For the same molecule, the zone of inhibition at 50 µg/mL [16] was 7.1 mm, the zone of inhibition at 30 µg/mL [17] was 6.03 mm and the Activity [18] was “Active”. For the same molecule, the zone of inhibition at 70 µg/mL [19] was 9.17 mm, the Activity [20] was “inactive” and the zone of inhibition at 50 µg/mL [21] was 8.23 mm. For the same molecule, the zone of inhibition at 30 µg/mL [22] was 7.26 mm, the zone of inhibition at 30 µg/mL [23] was 7.13 mm and the zone of inhibition at 70 µg/mL [24] was 8.23 mm. For the same molecule, the zone of inhibition at 30 µg/mL [25] was 9.06 mm, the zone of inhibition at 50 µg/mL [26] was 11.3 mm and the zone of inhibition at 70 µg/mL [27] was 12.1 mm. It also gave a zone of inhibition at 50 µg/mL [28] of 7.2 mm.
In the case of `CCCCN(CCCC)CC(=O)Nn1c(S)nnc1-c1ccc(OC)cc1`, the Activity [1] is reported as “Active”, the zone of inhibition at 50 µg/mL [2] is reported as 16.2 mm and the Activity [3] is reported as “Active”. It also gave a zone of inhibition at 70 µg/mL [4] of 16.2 mm, a zone of inhibition at 50 µg/mL [5] of 15.1 mm and a zone of inhibition at 70 µg/mL [6] of 17.3 mm. For the same molecule, the Activity [7] was “Active”, the zone of inhibition at 30 µg/mL [8] was 13 mm and the zone of inhibition at 70 µg/mL [9] was 20.4 mm. For the same molecule, the zone of inhibition at 30 µg/mL [10] was 11.2 mm, the zone of inhibition at 70 µg/mL [11] was 17.2 mm and the zone of inhibition at 30 µg/mL [12] was 13.1 mm. For the same molecule, the Activity [13] was “Active”, the zone of inhibition at 50 µg/mL [14] was 18.3 mm and the Activity [15] was “Active”. For the same molecule, the zone of inhibition at 50 µg/mL [16] was 15.2 mm, the zone of inhibition at 30 µg/mL [17] was 13.1 mm and the Activity [18] was “Active”. For the same molecule, the zone of inhibition at 70 µg/mL [19] was 18.2 mm, the Activity [20] was “Active” and the zone of inhibition at 50 µg/mL [21] was 14.3 mm. For the same molecule, the zone of inhibition at 30 µg/mL [22] was 16.1 mm, the zone of inhibition at 30 µg/mL [23] was 15.1 mm and the zone of inhibition at 70 µg/mL [24] was 15.2 mm. For the same molecule, the zone of inhibition at 30 µg/mL [25] was 18.1 mm, the zone of inhibition at 50 µg/mL [26] was 20.1 mm and the zone of inhibition at 70 µg/mL [27] was 22.4 mm. The zone of inhibition at 50 µg/mL [28] was 13 mm.
`COc1ccc(-c2nnc(S)n2NC(=O)CN(C(C)C)C(C)C)cc1` was tested, and the Activity [1] was “Active”, the zone of inhibition at 50 µg/mL [2] was 12.3 mm and the Activity [3] was “inactive”. The zone of inhibition at 70 µg/mL [4] was 9.06 mm, the zone of inhibition at 50 µg/mL [5] was 10.3 mm and the zone of inhibition at 70 µg/mL [6] was 12.4 mm. For the same molecule, the Activity [7] was “Active”, the zone of inhibition at 30 µg/mL [8] was 9.43 mm and the zone of inhibition at 70 µg/mL [9] was 13.8 mm. For the same molecule, the zone of inhibition at 30 µg/mL [10] was 8.5 mm, the zone of inhibition at 70 µg/mL [11] was 10.3 mm and the zone of inhibition at 30 µg/mL [12] was 7.26 mm. The Activity [13] was “inactive”, the zone of inhibition at 50 µg/mL [14] was 12.1 mm and the Activity [15] was “Active”. For the same molecule, the zone of inhibition at 50 µg/mL [16] was 9.26 mm, the zone of inhibition at 30 µg/mL [17] was 8.2 mm and the Activity [18] was “Active”. The zone of inhibition at 70 µg/mL [19] was 13.3 mm, the Activity [20] was “inactive” and the zone of inhibition at 50 µg/mL [21] was 8.13 mm. For the same molecule, the zone of inhibition at 30 µg/mL [22] was 11.2 mm, the zone of inhibition at 30 µg/mL [23] was 11.1 mm and the zone of inhibition at 70 µg/mL [24] was 10.5 mm. For the same molecule, the zone of inhibition at 30 µg/mL [25] was 10.1 mm, the zone of inhibition at 50 µg/mL [26] was 11.3 mm and the zone of inhibition at 70 µg/mL [27] was 13 mm. It also gave a zone of inhibition at 50 µg/mL [28] of 9.3 mm.
